Values after ≈ are worked out from the molar mass of the structure shown.
Legend:
MRSA ATCC 43300 = test: MIC/MBC by broth dilution (CLSI); type: cell-based, Staphylococcus aureus; conditions: Staphylococcus aureus; for MIC: MRSA ATCC 43300, broth dilution, 24 h, 37 °C, read-out: MIC; for MBC: MRSA ATCC 43300, 99.9% of the bacteria killed
Experimental: (§1) The in vitro antimicrobial activity of the pleuromutilin derivatives was assessed against MRSA ATCC 43300, S. aureus ATCC 29213, S. aureus 144 and S. aureus AD3 according to the Clinical and Laboratory Standards Institute (CLSI). Tiamulin was used as a positive control drug. The results were summarized as the minimum inhibitory concentration (MIC) and the minimum bactericidal concentration (MBC) in Table 1 and Table 2. In addition, MIC results for the pleuromutilin derivatives against four Gram-negative bacteria are supplied in Tables S2 and S3.
(§2) The MIC and MBC values of the synthesized novel pleuromutilin derivatives against MRSA ATCC 43300, S. aureus ATCC 29213, S. aureus 144 and S. aureus AD3 were measured. Tiamulin was used as a positive control drug. The MIC and MBC values were manipulated by broth dilution according to the Clinical and Laboratory Standards (CLSI). Each compound to be measured was dissolved in a solution of 95% deionized water, 2.5% dimethyl sulfoxide (DMSO) and 2.5% Tween-80 with a concentration of 1280 µg/mL. Subsequently, serial twofold dilutions were made in a concentration range from 64 µg/mL to 0.0625 µg/mL. The working bacterial suspension was inoculated into each well, which provided the final inoculum density of 5 × 10^5 CFU/mL. Three parallel experiments were performed for each compound.
(§3) Overall, 25 µL of the bacterial solution from the wells with no obvious bacterial growth was inoculated on MH agar plates. Then, the inoculated MH agar plates were further cultured at 37 °C for 24 h.

S. aureus 144 = test: MIC/MBC by broth dilution (CLSI); type: cell-based; conditions: Staphylococcus aureus; S. aureus 144 (clinical strain)
Experimental: as §1, §2, §3

S. aureus AD3 = test: MIC/MBC by broth dilution (CLSI); type: cell-based; conditions: Staphylococcus aureus; S. aureus AD3 (clinical strain)
Experimental: as §1, §2, §3

S. aureus ATCC 29213 = test: MIC/MBC by broth dilution (CLSI); type: cell-based; conditions: Staphylococcus aureus, ATCC29213; for MIC: S. aureus ATCC 29213, broth dilution, 24 h, 37 °C; for MBC: S. aureus ATCC 29213
Experimental: as §1, §2, §3

Row | MIC (MRSA ATCC 43300) | MIC (S. aureus 144) | MIC (S. aureus AD3) | MIC (S. aureus ATCC 29213) | melting point | Compound | MBC (MRSA ATCC 43300) | MBC (S. aureus 144) | MBC (S. aureus AD3) | MBC (S. aureus ATCC 29213)
1 | > 64 µg/mL | > 64 µg/mL | > 64 µg/mL | > 64 µg/mL | 107 to 111 °C | C=C[C@]1(C)C[C@@H](OC(=O)CNc2nc(Cl)nc3c2cnn3-c2ccc(Cl)cc2)[C@]2(C)[C@H](C)CC[C@]3(CCC(=O)[C@H]32)[C@@H](C)[C@@H]1O [Compound 25b, 22-[(6-Chloro-1-(4-chlorophenyl)-1H-pyrazolo[3,4-d]pyrimidine-4-yl)amino]-22-deoxypleuromutilin] |  |  |  | 
2 | > 64 µg/mL | > 64 µg/mL | > 64 µg/mL | > 64 µg/mL | 131 to 135 °C | C=C[C@]1(C)C[C@@H](OC(=O)CNc2nc(Cl)nc3c2cnn3-c2cccc([N+](=O)[O-])c2)[C@]2(C)[C@H](C)CC[C@]3(CCC(=O)[C@H]32)[C@@H](C)[C@@H]1O [Compound 27b, 22-[(6-Chloro-1-(3-nitrophenyl)-1H-pyrazolo[3,4-d]pyrimidine-4-yl)amino]-22-deoxypleuromutilin] |  |  |  | 
3 | > 64 µg/mL | > 64 µg/mL | > 64 µg/mL | > 64 µg/mL | 123 to 125 °C | C=C[C@]1(C)C[C@@H](OC(=O)CNc2nc(Cl)nc3c2cnn3-c2ccc(F)cc2F)[C@]2(C)[C@H](C)CC[C@]3(CCC(=O)[C@H]32)[C@@H](C)[C@@H]1O [Compound 20b, 22-[(6-Chloro-1-(2,4-difluorophenyl)-1H-pyrazolo[3,4-d]pyrimidine-4-yl)amino]-22-deoxypleuromutilin] |  |  |  | 
4 | > 64 µg/mL | > 64 µg/mL | > 64 µg/mL | > 64 µg/mL | 132 to 134 °C | C=C[C@]1(C)C[C@@H](OC(=O)CSc2ccc(Nc3nc(Cl)nc4c3cnn4-c3ccc(F)cc3F)cc2)[C@]2(C)[C@H](C)CC[C@]3(CCC(=O)[C@H]32)[C@@H](C)[C@@H]1O [Compound 20c, 22-[4-(6-Chloro-1-(2,4-difluorophenyl)-1H-pyrazolo[3,4-d]pyrimidine-4-yl)amino-Phenylsulfanyl]-22-deoxypleuromutilin] |  |  |  | 
5 | 16 µg/mL (≈ 25.2 µM) | 16 µg/mL (≈ 25.2 µM) | 16 µg/mL (≈ 25.2 µM) | 16 µg/mL (≈ 25.2 µM) | 99 to 103 °C | C=C[C@]1(C)C[C@@H](OC(=O)CNc2nc(Cl)nc3c2cnn3-c2ccc(C)c(C)c2)[C@]2(C)[C@H](C)CC[C@]3(CCC(=O)[C@H]32)[C@@H](C)[C@@H]1O [Compound 14b, 22-[(6-Chloro-1-(3,4-dimethylphenyl)-1H-pyrazolo[3,4-d]pyrimidine-4-yl)amino]-22-deoxypleuromutilin] | > 64 µg/mL | > 64 µg/mL | > 64 µg/mL | > 64 µg/mL
6 | > 64 µg/mL | > 64 µg/mL | > 64 µg/mL | > 64 µg/mL | 137 to 139 °C | C=C[C@]1(C)C[C@@H](OC(=O)CSc2ccc(Nc3nc(Cl)nc4c3cnn4-c3cccc([N+](=O)[O-])c3)cc2)[C@]2(C)[C@H](C)CC[C@]3(CCC(=O)[C@H]32)[C@@H](C)[C@@H]1O [Compound 27c, 22-[4-(6-Chloro-1-(3-nitrophenyl)-1H-pyrazolo[3,4-d]pyrimidine-4-yl)amino-Phenylsulfanyl]-22-deoxypleuromutilin] |  |  |  | 
7 | 8 µg/mL (≈ 10.7 µM) | > 64 µg/mL | 8 µg/mL (≈ 10.7 µM) | 16 µg/mL (≈ 21.4 µM) | 124 to 129 °C | C=C[C@]1(C)C[C@@H](OC(=O)CSc2ccc(Nc3nc(Cl)nc4c3cnn4-c3ccc(Cl)cc3)cc2)[C@]2(C)[C@H](C)CC[C@]3(CCC(=O)[C@H]32)[C@@H](C)[C@@H]1O [Compound 25c, 22-[4-(6-Chloro-1-(4-chlorophenyl)-1H-pyrazolo[3,4-d]pyrimidine-4-yl)amino-Phenylsulfanyl]-22-deoxypleuromutilin] | 16 µg/mL (≈ 21.4 µM) |  | 32 µg/mL (≈ 42.7 µM) | > 64 µg/mL
8 | > 64 µg/mL | > 64 µg/mL | > 64 µg/mL | > 64 µg/mL | 103 to 105 °C | C=C[C@]1(C)C[C@@H](OC(=O)CSc2ccc(Nc3nc(Cl)nc4c3cnn4-c3ccc(C)c(C)c3)cc2)[C@]2(C)[C@H](C)CC[C@]3(CCC(=O)[C@H]32)[C@@H](C)[C@@H]1O [Compound 14c, 22-[4-(6-Chloro-1-(3,4-dimethylphenyl)-1H-pyrazolo[3,4-d]pyrimidine-4-yl)amino-Phenylsulfanyl]-22-deoxypleuromutilin] |  |  |  | 
9 | > 64 µg/mL | > 64 µg/mL | > 64 µg/mL | > 64 µg/mL | 117 to 119 °C | C=C[C@]1(C)C[C@@H](OC(=O)CNc2nc(Cl)nc3c2cnn3-c2cccc(Cl)c2)[C@]2(C)[C@H](C)CC[C@]3(CCC(=O)[C@H]32)[C@@H](C)[C@@H]1O [Compound 24b, 22-[(6-Chloro-1-(3-chlorophenyl)-1H-pyrazolo[3,4-d]pyrimidine-4-yl)amino]-22-deoxypleuromutilin] |  |  |  | 
10 | > 64 µg/mL | > 64 µg/mL | > 64 µg/mL | > 64 µg/mL | 92 to 95 °C | C=C[C@]1(C)C[C@@H](OC(=O)CSc2ccc(Nc3nc(Cl)nc4c3cnn4-c3cc(C)cc(C)c3)cc2)[C@]2(C)[C@H](C)CC[C@]3(CCC(=O)[C@H]32)[C@@H](C)[C@@H]1O [Compound 15c, 22-[4-(6-Chloro-1-(3,5-dimethylphenyl)-1H-pyrazolo[3,4-d]pyrimidine-4-yl)amino-Phenylsulfanyl]-22-deoxypleuromutilin] |  |  |  | 
11 | > 64 µg/mL | > 64 µg/mL | > 64 µg/mL | > 64 µg/mL | 151 to 156 °C | C=C[C@]1(C)C[C@@H](OC(=O)CNc2nc(Cl)nc3c2cnn3-c2cc(Cl)cc(Cl)c2)[C@]2(C)[C@H](C)CC[C@]3(CCC(=O)[C@H]32)[C@@H](C)[C@@H]1O [Compound 26b, 22-[(6-Chloro-1-(3,5-dichlorophenyl)-1H-pyrazolo[3,4-d]pyrimidine-4-yl)amino]-22-deoxypleuromutilin] |  |  |  | 
12 | > 64 µg/mL | > 64 µg/mL | > 64 µg/mL | > 64 µg/mL | 115 to 118 °C | C=C[C@]1(C)C[C@@H](OC(=O)CSc2ccc(Nc3nc(Cl)nc4c3cnn4-c3cc(F)ccc3F)cc2)[C@]2(C)[C@H](C)CC[C@]3(CCC(=O)[C@H]32)[C@@H](C)[C@@H]1O [Compound 21c, 22-[4-(6-Chloro-1-(2,5-difluorophenyl)-1H-pyrazolo[3,4-d]pyrimidine-4-yl)amino-Phenylsulfanyl]-22-deoxypleuromutilin] |  |  |  | 
13 | > 64 µg/mL | > 64 µg/mL | > 64 µg/mL | > 64 µg/mL | 123 to 127 °C | C=C[C@]1(C)C[C@@H](OC(=O)CSc2ccc(Nc3nc(Cl)nc4c3cnn4-c3ccccc3F)cc2)[C@]2(C)[C@H](C)CC[C@]3(CCC(=O)[C@H]32)[C@@H](C)[C@@H]1O [Compound 18c, 22-[4-(6-Chloro-1-(2-fluorophenyl)-1H-pyrazolo[3,4-d]pyrimidine-4-yl)amino-Phenylsulfanyl]-22-deoxypleuromutilin] |  |  |  | 
14 | > 64 µg/mL | > 64 µg/mL | > 64 µg/mL | > 64 µg/mL | 121 to 125 °C | C=C[C@]1(C)C[C@@H](OC(=O)CNc2nc(Cl)nc3c2cnn3-c2cc(F)ccc2F)[C@]2(C)[C@H](C)CC[C@]3(CCC(=O)[C@H]32)[C@@H](C)[C@@H]1O [Compound 21b, 22-[(6-Chloro-1-(2,5-difluorophenyl)-1H-pyrazolo[3,4-d]pyrimidine-4-yl)amino]-22-deoxypleuromutilin] |  |  |  | 

Source: PMC10180054, “Design, Synthesis and Biological Evaluation of Novel Pleuromutilin Derivatives Containing 6-Chloro-1-R-1H-pyrazolo[3,4-d]pyrimidine-4-amino Side Chain” (Molecules, 2023)
